Assay results: patent publication US11839213B2, “Antimicrobial, disinfecting, and wound healing compositions and methods for producing and using the same” (Armis Biopharma, Inc., priority 2008, dated 2023)

Legend:
[1] = system: C. difficile; assay: ASTM E2197-02 disk carrier test against C. difficile spores; type: cell-based; settings: C. difficile spores with soil load on stainless steel disks, 10 minutes contact
Description: Pyruvic peracid (PPA) and Peroxy α-ketobutyric acid (POKBA) were tested against C. difficile using the ASTM E2197-02 testing method and the results are shown on FIG. 3. […] The method of testing these molecules against C. difficile was designed to evaluate the ability of liquid chemical germicides to inactivate vegetative bacteria, viruses, fungi, mycobacteria and bacterial spores in the presence of a soil load on disk carriers that represent environmental surfaces and medical devices.
This test method is a standard test promulgated by ASTM Committee E35 on Pesticides and Subcommittee E35.15 on Antimicrobial Agents. The stringency in the test is provided by the use of a soil load, the microtopography of the carrier surface and the small ratio of disinfectant to surface area (1:5) typical for many disinfectant applications. Thus the formulation under test is presented with a reasonable challenge while allowing for efficient recovery of the test organisms from the inoculated carriers with or without their exposure to the test formulation.
The metal disks used in the basic test are also compatible with a wide variety of germicidal actives and most surfaces in consumer based product manufacturing and health care facilities. The design of the metal discs makes it possible to place onto each precisely measured volume of the test organism (28 μL) as well as the test formulation (125 μL). […]

[2] = system: MRSA; assay: Spray test, log reduction of MRSA; type: cell-based; settings: derived from 10% pyruvate and 3% H2O2; no growth in the broth, complete elimination assumed
Source text: A representative list of the organisms tested include, but are not limited to, Bacillus subtilis, Bacillus atrophaeus, Bacillus thuringiensis, Staphylococcus aureus, Salmonella cholerasuis, Pseudomonas aeruginosa, Aspergillus niger, and Trichophyton mentagrophytes. The following exemplifies one procedure derived from disinfectant test methods found in guidelines of the Association of Official Analytical Chemists (AOAC) to meet “log reduction criteria” established by the U.S. Environmental Protection Agency (EPA) and U.S. FDA for certain applications: (1) A tube of the sample-disinfectant is placed into a waterbath for temperature control and allowed to equilibrate; (2) Once the tube has reached temperature, it is inoculated to achieve a concentration of approximately 10^6 CFU/mL; (3) At selected time points (generally five points are used including zero) aliquots are removed and placed into a neutralizer blank; (4) Dilutions of the neutralizer are made and selected dilutions plated onto agar; (5) Colonies are enumerated and log reductions are calculated.
In order to obtain observable significant reductions (on the order of 106) of surface bacteria, a high number of viable CFU/in^2 must be available for treatment on the surface to be disinfected. […]
The effectiveness of treatments was evaluated by enumeration of the surviving bacteria on the slide. […]

Compound | activity against C. difficile (comparison, FIG. 3) [1] | log reduction of the MRSA control [2]
CCC(=O)C(=O)OO [POKBA, Peroxy-alpha-Ketobutyric Acid] | significantly more active compared to PPA | –
CC(=O)C(=O)OO [peroxy pyruvic acid] | – | approximately 6 logs
